From publication PMC9851200, “Multiparameter phenotypic screening for endogenous TFEB and TFE3 translocation identifies novel chemical series modulating lysosome function” (Autophagy, 2022)

What was measured:
Type in all cases: binding
[1] = biological target: kinases (KINOMEscan panel) (Homo sapiens, UniProt P10721); conditions: NEW KINOMEscan
[2] = biological target: kinases (KINOMEscan panel) (Homo sapiens, UniProt Q14012); conditions: CAMK1; NEW KINOMEscan
[3] = biological target: kinases (KINOMEscan panel) (Homo sapiens, UniProt P24941); conditions: CDK2; NEW KINOMEscan
[4] = biological target: T1, kinases (KINOMEscan panel) (Homo sapiens, UniProt Q86YV6); conditions: kinase MYLK4; NEW KINOMEscan
T1 sequence (Q86YV6 1-388): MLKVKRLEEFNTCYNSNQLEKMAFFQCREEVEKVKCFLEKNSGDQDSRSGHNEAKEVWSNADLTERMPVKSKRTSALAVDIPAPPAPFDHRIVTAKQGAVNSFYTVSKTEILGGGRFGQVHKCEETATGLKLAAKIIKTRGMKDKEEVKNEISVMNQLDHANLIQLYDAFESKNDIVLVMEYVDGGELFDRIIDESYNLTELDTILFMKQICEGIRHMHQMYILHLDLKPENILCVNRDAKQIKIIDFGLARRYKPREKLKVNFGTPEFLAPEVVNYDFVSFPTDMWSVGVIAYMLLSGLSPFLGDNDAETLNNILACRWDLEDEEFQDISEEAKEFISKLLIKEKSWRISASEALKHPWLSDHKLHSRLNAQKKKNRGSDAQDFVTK

[5] = biological target: kinases (KINOMEscan panel) (Homo sapiens, UniProt Q15746); conditions: kinase MYLK; NEW KINOMEscan
kinases (KINOMEscan panel) (Homo sapiens, UniProt Q15746), sequence (Q15746 whole entry): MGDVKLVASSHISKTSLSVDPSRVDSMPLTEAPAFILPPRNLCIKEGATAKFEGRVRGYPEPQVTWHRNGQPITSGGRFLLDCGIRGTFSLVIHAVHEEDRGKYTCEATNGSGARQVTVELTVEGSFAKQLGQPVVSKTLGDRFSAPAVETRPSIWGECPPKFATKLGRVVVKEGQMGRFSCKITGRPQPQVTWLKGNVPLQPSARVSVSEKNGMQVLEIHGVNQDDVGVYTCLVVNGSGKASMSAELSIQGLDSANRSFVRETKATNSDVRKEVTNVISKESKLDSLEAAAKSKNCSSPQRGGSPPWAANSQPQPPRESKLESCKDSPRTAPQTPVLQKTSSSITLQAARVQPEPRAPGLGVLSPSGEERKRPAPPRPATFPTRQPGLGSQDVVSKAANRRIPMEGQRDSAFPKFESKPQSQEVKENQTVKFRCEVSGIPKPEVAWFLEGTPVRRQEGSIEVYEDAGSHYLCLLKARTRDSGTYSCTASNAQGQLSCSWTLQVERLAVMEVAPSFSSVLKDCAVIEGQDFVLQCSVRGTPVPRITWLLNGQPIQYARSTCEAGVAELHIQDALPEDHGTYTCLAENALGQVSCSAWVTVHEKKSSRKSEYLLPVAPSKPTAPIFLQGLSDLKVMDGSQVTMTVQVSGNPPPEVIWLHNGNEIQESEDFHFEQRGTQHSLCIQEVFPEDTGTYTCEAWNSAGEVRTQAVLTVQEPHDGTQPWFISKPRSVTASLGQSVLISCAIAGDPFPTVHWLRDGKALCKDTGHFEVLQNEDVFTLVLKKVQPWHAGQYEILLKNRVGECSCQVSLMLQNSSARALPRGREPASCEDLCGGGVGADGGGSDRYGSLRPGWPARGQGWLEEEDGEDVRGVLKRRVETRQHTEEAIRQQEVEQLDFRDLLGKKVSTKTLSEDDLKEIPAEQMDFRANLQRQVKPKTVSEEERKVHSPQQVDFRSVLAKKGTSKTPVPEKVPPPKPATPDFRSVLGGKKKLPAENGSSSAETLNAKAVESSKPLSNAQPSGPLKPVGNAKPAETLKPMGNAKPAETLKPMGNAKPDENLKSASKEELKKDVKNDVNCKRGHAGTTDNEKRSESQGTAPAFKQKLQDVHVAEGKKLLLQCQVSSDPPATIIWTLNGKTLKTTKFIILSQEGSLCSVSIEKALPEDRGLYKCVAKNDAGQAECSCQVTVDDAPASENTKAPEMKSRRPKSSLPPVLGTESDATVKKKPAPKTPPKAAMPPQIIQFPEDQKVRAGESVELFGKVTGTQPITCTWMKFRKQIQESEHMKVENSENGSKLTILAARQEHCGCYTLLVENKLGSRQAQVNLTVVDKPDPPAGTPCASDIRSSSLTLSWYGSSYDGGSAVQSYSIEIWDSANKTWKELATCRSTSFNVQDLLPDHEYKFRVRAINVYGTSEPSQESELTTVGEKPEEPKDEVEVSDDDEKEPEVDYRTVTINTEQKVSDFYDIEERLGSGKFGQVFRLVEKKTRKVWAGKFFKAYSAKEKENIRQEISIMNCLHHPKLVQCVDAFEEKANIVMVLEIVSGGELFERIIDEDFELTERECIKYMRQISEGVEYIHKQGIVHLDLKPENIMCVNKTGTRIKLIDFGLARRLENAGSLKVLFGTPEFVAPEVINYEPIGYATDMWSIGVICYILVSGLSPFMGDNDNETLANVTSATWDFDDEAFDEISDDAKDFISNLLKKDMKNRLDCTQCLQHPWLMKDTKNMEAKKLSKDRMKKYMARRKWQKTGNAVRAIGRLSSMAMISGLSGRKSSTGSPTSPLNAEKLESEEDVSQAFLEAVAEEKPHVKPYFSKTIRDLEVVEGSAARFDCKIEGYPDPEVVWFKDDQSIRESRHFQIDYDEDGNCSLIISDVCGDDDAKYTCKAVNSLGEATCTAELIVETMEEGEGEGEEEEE

[6] = biological target: T2, kinases (KINOMEscan panel) (Homo sapiens, UniProt O14757); conditions: CHEK1; NEW KINOMEscan
T2 sequence (O14757 1-476): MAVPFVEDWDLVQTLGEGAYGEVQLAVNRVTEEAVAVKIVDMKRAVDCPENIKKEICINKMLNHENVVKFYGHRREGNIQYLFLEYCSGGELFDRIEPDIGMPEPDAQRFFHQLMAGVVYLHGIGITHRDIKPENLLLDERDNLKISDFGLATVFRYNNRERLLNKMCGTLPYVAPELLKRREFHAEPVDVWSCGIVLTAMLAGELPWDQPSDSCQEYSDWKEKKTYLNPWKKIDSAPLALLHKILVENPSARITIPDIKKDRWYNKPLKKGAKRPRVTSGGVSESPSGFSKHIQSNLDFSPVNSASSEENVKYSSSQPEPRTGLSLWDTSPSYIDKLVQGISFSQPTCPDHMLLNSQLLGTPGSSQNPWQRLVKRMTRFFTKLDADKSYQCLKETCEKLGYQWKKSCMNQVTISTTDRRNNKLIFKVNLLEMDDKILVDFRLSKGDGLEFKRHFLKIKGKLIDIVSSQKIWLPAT

[7] = biological target: T3, kinases (KINOMEscan panel) (Homo sapiens, UniProt Q9UHD2); conditions: TBK1; NEW KINOMEscan
T3 sequence (Q9UHD2 1-729): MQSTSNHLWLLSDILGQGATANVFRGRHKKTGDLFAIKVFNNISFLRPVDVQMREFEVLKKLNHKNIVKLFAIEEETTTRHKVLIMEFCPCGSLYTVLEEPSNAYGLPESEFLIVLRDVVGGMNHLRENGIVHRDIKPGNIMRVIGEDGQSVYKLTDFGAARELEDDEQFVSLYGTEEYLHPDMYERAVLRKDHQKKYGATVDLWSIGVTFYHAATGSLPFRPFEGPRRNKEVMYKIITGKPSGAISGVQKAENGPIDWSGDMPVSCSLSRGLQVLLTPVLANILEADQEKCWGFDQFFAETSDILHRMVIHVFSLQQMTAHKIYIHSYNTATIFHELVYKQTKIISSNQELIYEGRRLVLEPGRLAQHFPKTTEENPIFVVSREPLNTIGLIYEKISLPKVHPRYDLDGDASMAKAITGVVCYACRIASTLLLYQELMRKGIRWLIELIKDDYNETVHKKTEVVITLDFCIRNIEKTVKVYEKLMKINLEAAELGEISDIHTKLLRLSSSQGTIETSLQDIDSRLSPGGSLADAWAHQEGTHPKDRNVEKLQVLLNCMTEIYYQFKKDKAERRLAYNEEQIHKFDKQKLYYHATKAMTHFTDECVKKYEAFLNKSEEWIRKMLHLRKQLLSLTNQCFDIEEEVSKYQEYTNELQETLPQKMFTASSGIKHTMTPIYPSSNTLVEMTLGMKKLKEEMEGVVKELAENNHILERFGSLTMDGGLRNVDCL

[8] = biological target: kinases (KINOMEscan panel) (Homo sapiens, UniProt Q13233); conditions: MAP3K1; NEW KINOMEscan
kinases (KINOMEscan panel) (Homo sapiens, UniProt Q13233), sequence (Q13233 whole entry): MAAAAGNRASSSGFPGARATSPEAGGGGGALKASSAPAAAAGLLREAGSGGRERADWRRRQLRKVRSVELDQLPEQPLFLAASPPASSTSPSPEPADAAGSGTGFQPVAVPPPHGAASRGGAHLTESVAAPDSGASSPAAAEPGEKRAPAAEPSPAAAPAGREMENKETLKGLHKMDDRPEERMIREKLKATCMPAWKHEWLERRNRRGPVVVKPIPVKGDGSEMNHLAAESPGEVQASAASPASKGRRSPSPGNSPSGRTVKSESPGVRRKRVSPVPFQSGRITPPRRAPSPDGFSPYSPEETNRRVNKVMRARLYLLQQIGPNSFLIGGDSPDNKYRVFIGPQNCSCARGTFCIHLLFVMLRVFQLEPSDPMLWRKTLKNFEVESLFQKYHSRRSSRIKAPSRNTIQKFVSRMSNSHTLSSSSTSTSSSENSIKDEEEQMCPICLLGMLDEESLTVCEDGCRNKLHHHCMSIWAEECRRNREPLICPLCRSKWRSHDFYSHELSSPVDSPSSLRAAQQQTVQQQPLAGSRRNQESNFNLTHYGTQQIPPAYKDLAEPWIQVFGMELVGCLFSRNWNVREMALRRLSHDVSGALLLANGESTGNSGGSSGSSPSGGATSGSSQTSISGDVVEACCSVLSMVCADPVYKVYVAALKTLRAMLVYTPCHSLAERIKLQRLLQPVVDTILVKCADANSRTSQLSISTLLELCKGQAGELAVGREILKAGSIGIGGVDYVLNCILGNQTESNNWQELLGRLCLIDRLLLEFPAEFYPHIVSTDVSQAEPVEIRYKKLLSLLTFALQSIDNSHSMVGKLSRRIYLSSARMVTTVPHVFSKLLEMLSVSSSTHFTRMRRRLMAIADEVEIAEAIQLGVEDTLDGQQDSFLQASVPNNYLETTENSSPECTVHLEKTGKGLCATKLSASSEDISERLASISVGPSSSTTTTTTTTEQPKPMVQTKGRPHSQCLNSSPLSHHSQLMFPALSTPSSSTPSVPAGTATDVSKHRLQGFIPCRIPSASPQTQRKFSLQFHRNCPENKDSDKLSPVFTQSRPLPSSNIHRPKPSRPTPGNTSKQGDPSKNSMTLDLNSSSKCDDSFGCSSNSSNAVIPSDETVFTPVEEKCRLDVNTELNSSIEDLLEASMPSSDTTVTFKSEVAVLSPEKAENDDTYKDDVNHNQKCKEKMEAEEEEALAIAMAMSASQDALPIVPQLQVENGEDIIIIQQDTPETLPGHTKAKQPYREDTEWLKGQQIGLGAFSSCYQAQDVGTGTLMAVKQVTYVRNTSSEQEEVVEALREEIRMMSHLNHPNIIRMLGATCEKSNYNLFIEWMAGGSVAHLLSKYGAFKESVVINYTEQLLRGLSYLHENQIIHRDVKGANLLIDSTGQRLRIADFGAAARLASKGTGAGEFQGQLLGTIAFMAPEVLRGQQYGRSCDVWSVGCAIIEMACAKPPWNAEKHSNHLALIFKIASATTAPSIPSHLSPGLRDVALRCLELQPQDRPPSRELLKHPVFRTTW

[9] = biological target: kinases (KINOMEscan panel) (Homo sapiens, UniProt P00533, L861Q); conditions: kinase EGFR(L861Q); NEW KINOMEscan
[10] = biological target: T4, kinases (KINOMEscan panel) (Homo sapiens, UniProt Q02156); conditions: kinase PRKCE; NEW KINOMEscan
T4 sequence (Q02156 1-737): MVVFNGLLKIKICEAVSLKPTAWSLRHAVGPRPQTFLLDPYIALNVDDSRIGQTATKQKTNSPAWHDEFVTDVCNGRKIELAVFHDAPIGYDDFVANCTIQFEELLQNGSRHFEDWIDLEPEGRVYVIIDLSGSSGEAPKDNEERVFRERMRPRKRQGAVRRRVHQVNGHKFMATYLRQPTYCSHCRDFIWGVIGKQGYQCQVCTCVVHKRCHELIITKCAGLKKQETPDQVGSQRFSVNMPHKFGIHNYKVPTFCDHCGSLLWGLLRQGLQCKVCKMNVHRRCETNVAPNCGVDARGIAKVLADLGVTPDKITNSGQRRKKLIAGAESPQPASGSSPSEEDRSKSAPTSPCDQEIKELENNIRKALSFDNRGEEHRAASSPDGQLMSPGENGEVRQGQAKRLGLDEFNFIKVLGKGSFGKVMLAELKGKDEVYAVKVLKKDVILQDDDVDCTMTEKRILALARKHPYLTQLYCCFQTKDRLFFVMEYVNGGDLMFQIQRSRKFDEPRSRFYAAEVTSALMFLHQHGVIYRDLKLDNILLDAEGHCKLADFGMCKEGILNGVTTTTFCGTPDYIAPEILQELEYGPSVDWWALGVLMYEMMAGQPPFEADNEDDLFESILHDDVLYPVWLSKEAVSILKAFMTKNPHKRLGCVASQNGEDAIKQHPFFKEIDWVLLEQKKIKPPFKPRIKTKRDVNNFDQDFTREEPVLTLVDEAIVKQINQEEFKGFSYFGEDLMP

kinases (KINOMEscan panel) (Homo sapiens, UniProt P10721), sequence (P10721 26-976): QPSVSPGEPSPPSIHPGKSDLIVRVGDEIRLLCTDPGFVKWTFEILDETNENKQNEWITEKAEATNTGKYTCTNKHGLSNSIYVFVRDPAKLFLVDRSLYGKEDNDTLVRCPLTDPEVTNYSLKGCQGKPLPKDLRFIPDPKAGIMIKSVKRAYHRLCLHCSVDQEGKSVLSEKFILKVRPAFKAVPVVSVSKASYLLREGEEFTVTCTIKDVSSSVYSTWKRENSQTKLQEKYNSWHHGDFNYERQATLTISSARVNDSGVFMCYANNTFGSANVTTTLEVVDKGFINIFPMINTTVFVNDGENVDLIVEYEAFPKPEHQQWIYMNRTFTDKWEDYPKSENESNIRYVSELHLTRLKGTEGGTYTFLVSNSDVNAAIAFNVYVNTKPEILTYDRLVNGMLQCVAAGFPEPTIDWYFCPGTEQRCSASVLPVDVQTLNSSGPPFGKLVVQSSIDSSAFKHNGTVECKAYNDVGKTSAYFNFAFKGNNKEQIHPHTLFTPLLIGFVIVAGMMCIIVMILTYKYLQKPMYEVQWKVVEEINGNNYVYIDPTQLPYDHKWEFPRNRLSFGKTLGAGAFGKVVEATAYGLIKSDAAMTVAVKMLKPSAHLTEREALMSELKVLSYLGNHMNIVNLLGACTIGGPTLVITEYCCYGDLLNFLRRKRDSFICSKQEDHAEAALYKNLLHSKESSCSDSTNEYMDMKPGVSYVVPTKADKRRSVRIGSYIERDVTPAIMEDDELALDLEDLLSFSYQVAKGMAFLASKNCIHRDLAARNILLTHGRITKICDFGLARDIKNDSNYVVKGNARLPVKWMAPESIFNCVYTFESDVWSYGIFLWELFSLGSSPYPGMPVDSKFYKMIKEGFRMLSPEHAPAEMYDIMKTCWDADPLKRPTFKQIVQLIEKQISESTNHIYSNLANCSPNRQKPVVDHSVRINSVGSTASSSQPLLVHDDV
kinases (KINOMEscan panel) (Homo sapiens, UniProt Q14012), sequence (Q14012 whole entry): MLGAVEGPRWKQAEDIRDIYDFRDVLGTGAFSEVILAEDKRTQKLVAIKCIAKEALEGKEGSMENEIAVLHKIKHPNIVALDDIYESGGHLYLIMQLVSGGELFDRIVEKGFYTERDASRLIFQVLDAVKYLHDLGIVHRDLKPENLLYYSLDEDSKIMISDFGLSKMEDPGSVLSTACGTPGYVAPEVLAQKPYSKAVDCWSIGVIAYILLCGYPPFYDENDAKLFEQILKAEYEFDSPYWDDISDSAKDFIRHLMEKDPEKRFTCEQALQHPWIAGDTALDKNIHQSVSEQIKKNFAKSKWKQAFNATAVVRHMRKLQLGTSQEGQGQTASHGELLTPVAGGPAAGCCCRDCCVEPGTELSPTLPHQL

## Cc1cccc(-c2nc(Nc3ccc4nn(C)cc4c3)c3ccccc3n2)n1 [NK167]
[1]
  KINOMEscan KIT-autoinhibited: 1
  KINOMEscan KIT: 8
[2]
  KINOMEscan CAMK1: 0
[3]
  KINOMEscan CDK2: 0
[4]
  KINOMEscan MYLK4: 0
[5]
  KINOMEscan MYLK: 19
[6]
  KINOMEscan CHEK1: 2
[7]
  KINOMEscan TBK1: 44
[8]
  KINOMEscan MAP3K1: 0
[9]
  KINOMEscan EGFR(L861Q): 0
[10]
  KINOMEscan PRKCE: 0

## Cc1cccc(-c2nc(N(C)c3ccc4ncsc4c3)c3ccccc3n2)n1 [NK-161]
[1]
  KINOMEscan KIT-autoinhibited: 0
  KINOMEscan KIT: 5
[2]
  KINOMEscan CAMK1: 0
[3]
  KINOMEscan CDK2: 0
[4]
  KINOMEscan MYLK4: 0
[5]
  KINOMEscan MYLK: 3
[6]
  KINOMEscan CHEK1: 3
[7]
  KINOMEscan TBK1: 25
[8]
  KINOMEscan MAP3K1: 0
[9]
  KINOMEscan EGFR(L861Q): 0
[10]
  KINOMEscan PRKCE: 7
